# Experimental data: ChEMBL document CHEMBL3751710, “Cyclic RGD peptidomimetics containing 4- and 5-amino-cyclopropane pipecolic acid (CPA) templates as dual αVβ3 and α5β1 integrin ligands” (Bioorg Med Chem, 2016)
# Columns and labels:
# [1] = target: Integrin alpha-5/beta-1 (Homo sapiens, UniProt P05556+P08648); experiment: Binding affinity to integrin alpha5/beta1 heterodimer in human K562 cells assessed as inhibition of integrin-mediated human K562 cell adhesion to fibronectin incubated for 30 mins in presence of MnCl2; type: cell-based
# Chain of Integrin alpha-5/beta-1 (P05556 21-798 limits assumed): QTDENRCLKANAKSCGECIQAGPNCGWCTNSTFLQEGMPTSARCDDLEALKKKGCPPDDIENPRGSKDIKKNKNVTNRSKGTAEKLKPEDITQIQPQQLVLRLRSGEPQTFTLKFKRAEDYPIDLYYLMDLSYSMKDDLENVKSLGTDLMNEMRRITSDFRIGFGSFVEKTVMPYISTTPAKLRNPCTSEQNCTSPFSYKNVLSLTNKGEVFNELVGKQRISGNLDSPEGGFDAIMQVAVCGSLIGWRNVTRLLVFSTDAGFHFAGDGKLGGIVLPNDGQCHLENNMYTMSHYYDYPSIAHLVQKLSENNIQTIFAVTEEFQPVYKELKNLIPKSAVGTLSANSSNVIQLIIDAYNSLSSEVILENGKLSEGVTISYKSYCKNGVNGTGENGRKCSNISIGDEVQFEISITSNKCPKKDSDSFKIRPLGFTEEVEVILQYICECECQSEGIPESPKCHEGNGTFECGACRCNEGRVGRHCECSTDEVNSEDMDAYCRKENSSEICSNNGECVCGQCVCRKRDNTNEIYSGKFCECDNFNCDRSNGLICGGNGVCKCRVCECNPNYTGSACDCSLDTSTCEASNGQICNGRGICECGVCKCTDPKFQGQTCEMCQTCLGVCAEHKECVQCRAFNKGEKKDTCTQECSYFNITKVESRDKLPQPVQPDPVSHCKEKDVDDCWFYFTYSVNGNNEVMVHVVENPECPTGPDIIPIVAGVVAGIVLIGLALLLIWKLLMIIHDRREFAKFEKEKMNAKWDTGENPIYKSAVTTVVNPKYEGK
# Chain of Integrin alpha-5/beta-1 (P08648 42-894 limits assumed): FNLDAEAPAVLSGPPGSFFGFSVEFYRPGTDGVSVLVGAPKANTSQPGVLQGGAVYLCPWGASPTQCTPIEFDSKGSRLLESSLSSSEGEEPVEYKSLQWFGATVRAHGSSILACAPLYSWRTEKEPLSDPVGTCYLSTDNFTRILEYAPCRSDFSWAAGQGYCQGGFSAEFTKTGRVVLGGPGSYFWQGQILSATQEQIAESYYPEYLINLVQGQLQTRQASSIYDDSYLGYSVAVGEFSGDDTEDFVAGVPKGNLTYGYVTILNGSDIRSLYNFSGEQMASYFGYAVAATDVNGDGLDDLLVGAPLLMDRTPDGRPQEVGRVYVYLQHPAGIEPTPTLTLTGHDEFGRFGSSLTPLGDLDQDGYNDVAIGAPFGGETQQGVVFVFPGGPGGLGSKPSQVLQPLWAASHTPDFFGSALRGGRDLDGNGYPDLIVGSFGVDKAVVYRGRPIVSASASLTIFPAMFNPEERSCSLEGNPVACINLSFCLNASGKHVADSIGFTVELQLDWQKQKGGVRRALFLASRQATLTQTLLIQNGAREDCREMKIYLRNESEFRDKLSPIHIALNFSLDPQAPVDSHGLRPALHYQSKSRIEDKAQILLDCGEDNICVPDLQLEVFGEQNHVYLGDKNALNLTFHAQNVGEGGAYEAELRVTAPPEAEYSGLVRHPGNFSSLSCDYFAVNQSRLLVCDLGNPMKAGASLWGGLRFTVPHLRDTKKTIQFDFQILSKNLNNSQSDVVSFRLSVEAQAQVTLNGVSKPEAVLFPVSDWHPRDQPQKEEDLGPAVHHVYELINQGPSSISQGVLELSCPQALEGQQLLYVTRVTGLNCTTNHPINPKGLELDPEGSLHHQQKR
# Chain of Integrin alpha-5/beta-1 (P08648 895-1049 limits assumed): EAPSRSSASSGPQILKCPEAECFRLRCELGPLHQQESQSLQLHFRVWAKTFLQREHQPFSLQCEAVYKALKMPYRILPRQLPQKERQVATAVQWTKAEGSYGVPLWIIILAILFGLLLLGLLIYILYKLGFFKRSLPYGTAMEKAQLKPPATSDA
# [2] = target: Integrin alpha-V/beta-3 (Homo sapiens, UniProt P05106+P06756); experiment: Binding affinity to integrin alphav/beta3 heterodimer in human M21 cells assessed as inhibition of integrin-mediated human M21 cell adhesion to vitronectin incubated for 30 mins in presence of MnCl2; type: cell-based
# Chain of Integrin alpha-V/beta-3 (P05106 27-788 limits assumed): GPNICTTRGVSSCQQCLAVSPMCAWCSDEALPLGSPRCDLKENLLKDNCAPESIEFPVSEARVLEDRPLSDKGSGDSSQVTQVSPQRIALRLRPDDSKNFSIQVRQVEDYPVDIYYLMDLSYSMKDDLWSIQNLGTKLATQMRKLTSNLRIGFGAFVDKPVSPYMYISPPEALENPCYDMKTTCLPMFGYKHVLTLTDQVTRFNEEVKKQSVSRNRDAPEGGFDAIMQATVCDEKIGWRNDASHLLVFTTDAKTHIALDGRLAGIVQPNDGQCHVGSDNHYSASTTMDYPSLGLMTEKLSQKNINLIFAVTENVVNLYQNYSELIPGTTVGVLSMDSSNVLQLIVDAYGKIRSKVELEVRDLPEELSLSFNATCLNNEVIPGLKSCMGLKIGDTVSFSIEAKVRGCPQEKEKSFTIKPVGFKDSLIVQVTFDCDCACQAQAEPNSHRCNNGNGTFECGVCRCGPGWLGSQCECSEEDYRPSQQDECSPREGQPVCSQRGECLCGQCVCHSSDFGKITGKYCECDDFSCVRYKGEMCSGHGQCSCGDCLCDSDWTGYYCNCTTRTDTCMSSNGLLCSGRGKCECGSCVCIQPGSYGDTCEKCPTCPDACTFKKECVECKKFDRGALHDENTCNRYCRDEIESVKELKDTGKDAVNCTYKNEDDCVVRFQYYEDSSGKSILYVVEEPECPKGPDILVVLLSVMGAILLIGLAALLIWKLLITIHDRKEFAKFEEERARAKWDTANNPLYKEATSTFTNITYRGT
# Chain of Integrin alpha-V/beta-3 (P06756 31-889 limits assumed): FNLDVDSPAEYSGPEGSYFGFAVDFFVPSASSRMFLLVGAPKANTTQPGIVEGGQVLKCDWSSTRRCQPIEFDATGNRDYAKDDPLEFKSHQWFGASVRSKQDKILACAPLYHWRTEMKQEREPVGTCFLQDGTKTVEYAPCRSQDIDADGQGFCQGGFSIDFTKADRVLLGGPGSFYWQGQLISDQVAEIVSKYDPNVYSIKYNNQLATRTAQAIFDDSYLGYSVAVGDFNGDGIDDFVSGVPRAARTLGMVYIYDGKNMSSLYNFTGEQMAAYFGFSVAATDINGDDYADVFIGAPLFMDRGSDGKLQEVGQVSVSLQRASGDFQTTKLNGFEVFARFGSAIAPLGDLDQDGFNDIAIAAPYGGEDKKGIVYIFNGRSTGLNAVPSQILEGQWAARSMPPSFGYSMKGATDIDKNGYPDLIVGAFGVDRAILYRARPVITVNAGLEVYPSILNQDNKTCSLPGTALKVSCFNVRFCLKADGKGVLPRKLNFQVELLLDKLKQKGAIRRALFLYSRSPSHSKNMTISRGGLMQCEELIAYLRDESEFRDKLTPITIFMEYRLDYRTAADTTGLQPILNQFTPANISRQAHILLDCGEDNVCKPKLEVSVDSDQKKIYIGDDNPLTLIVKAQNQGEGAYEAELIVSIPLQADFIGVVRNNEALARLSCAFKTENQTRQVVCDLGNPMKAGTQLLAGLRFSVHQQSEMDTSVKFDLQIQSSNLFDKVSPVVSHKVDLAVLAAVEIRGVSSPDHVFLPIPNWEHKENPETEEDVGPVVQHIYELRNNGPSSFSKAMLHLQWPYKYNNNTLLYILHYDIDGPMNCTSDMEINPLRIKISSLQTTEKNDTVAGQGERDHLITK
# Chain of Integrin alpha-V/beta-3 (P06756 891-1048 limits assumed): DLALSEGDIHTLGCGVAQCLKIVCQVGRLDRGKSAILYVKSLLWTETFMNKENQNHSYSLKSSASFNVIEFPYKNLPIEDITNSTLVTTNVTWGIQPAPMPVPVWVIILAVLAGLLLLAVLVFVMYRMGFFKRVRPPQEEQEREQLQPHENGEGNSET
IC50 [1] [nM],IC50 [2] [nM],Compound
15,34,COC(=O)N1C[C@H]2C[C@H]3C[C@]31C(=O)N[C@@H](CCCNC(=N)N)C(=O)NCC(=O)N[C@@H](CC(=O)O)C(=O)N2
26,2.4,COC(=O)N1CC[C@H]2NC(=O)[C@H](CC(=O)O)NC(=O)CNC(=O)[C@H](CCCNC(=N)N)NC(=O)[C@@]13C[C@@H]23
